Values quoted from earlier work, collected in patent US10253371B2, “Method of treating leukemia based on gene expression of clock genes” (National Guard Health Affairs, priority 2016, dated 2019).

How the values were obtained:
Bcr-Abl tyrosine kinase = conditions: more potent than imatinib
Bcr-Abl expressing cells = conditions: more potent than imatinib

In the case of `Cc1cn(-c2cc(NC(=O)c3ccc(C)c(Nc4nccc(-c5cccnc5)n4)c3)cc(C(F)(F)F)c2)cn1` [Nilotinib], the “potency relative to imatinib in inhibiting Bcr-Abl tyrosine kinase activity” value (Bcr-Abl tyrosine kinase) is listed as 10-30 fold and the “potency relative to imatinib in inhibiting proliferation of Bcr-Abl expressing cells” value (Bcr-Abl expressing cells) is listed as 10-30 fold.
